Results from US10258583B2, “Extended release liquid compositions of guanfacine” (SUN PHARMACEUTICAL INDUSTRIES LIMITED, priority 2014, dated 2019).

How the values were obtained:
[1] = cited from earlier work
[2] = pH dependent degradation profile - solution state stability; format: physicochemical
From the text: Guanfacine, particularly guanfacine hydrochloride, is found to degrade at high pH values. […] One of the major impurity of guanfacine is 2,6-dichlorophenyl acetic acid. [table]

[3] = Osmolality measurements (Osmomat 030-D); format: physicochemical; settings: samples of composition prepared as per Example 13
From the text: The term “osmolality,” as used herein, means the number of moles of any water-soluble compound per kg of the carrier. In the present invention, the osmolality may be measured according to known methods, such as using a Vapor pressure Osmometer, a Colloid Osmometer, or a Freezing Point Depression Osmometer such as Osmomat® 030-D or Osmomat® 3000, in particular by a Freezing Point Depression Osmometer. In the present invention, pharmaceutically acceptable carrier has an osmolality of about 1 osmol/kg or more than about 1 osmol/kg of the pharmaceutically acceptable carrier.
The term “osmolality ratio,” as used herein, means the ratio of osmolality of the external phase to the osmolality of the internal phase. […]
Xylitol, microcrystalline cellulose-sodium carboxymethyl cellulose, xanthan gum, strawberry flavor, sucralose, citric acid, methyl paraben, propyl paraben and colloidal silicon dioxide, purified water were mixed as per Example 13. This suspension was then filtered and diluted with purified water, and the osmolality of the external phase was measured using Osmomat 030-D.
Various solutions having various concentrations of sodium chloride were prepared as per Examples (A)-(D). The osmolalities of these solutions were measured using Osmomat 030-D.
Sodium chloride was dissolved in purified water as per Examples A-D. The osmolality of these solutions were measured using Osmomat 030-D.

Cl.N=C(N)NC(=O)Cc1c(Cl)cccc1Cl [Guanfacine hydrochloride, N-amidino-2-(2,6-dichlorophenyl)-acetamide monohydrochloride]
solubility in acetone ([1]; acetone): slightly soluble | solubility in alcohol ([1]; alcohol): sparingly soluble | solubility in water ([1]; water): approximately 1 mg/mL | % Assay ([2]; pH 1.2, 0 hours): 101.2% | % Assay ([2]; pH 1.2, 1 hour): 101.2% | % Assay ([2]; pH 1.2, 4 hours): 101.2% | % Assay ([2]; pH 1.2, 8 hours): 101.1% | % Assay ([2]; pH 1.2, 16 hours): 101.6% | % Assay ([2]; pH 1.2, 24 hours): 101.4% | % Assay ([2]; pH 2.2, 0 hours): 100.3% | % Assay ([2]; pH 2.2, 1 hour): 100.5% | % Assay ([2]; pH 2.2, 4 hours): 100.4% | % Assay ([2]; pH 2.2, 8 hours): 100.4% | % Assay ([2]; pH 2.2, 16 hours): 100.3% | % Assay ([2]; pH 2.2, 24 hours): 100.2% | % Assay ([2]; pH 4.5, 0 hours): 99.4% | % Assay ([2]; pH 4.5, 1 hour): 99.0% | % Assay ([2]; pH 4.5, 4 hours): 98.7% | % Assay ([2]; pH 4.5, 8 hours): 98.9% | % Assay ([2]; pH 4.5, 16 hours): 98.7% | % Assay ([2]; pH 4.5, 24 hours): 98.5% | % Assay ([2]; pH 6.8, 0 hours): 99.5% | % Assay ([2]; pH 6.8, 1 hour): 99.0% | % Assay ([2]; pH 6.8, 4 hours): 97.2% | % Assay ([2]; pH 6.8, 8 hours): 93.7% | % Assay ([2]; pH 6.8, 16 hours): 86.3% | % Assay ([2]; pH 6.8, 24 hours): 79.9% | % Assay ([2]; pH 7.5, 0 hours): 100.9% | % Assay ([2]; pH 7.5, 1 hour): 99.9% | % Assay ([2]; pH 7.5, 4 hours): 97.1% | % Assay ([2]; pH 7.5, 8 hours): 92.2% | % Assay ([2]; pH 7.5, 16 hours, listed as guanfacine, monohydrochloride): 84% | % Assay ([2]; pH 7.5, 16 hours, monohydrochloride): 84.0% | % Assay ([2]; pH 7.5, 24 hours): 77.5% | Osmolality [3]: 0.006 OSMOL/Kg
